Biological target: T1, mAChR M1 (Homo sapiens, UniProt P11229)
T1 construct: expressed in transfected cells; host or cells: CHO-K1
T1 sequence (P11229 1-460): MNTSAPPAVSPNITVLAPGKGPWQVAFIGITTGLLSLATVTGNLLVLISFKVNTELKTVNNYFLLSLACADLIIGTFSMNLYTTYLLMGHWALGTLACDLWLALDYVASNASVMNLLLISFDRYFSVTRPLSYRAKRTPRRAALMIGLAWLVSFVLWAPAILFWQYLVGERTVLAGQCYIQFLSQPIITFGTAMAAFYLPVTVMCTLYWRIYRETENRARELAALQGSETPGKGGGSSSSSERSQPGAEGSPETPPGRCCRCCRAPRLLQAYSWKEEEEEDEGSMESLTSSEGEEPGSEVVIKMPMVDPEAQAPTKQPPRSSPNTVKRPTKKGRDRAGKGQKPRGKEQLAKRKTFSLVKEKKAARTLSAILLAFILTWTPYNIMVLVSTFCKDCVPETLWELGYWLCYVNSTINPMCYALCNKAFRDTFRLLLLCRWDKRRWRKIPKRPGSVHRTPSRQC
Assay: mAChR M1 cell-based functional assay (calcium mobilization, potentiation of EC20 acetylcholine response in CHO-K1 cells)
Conditions: for Emax: CHO-K1, maximal response of curve fit or response at 30 μM test compound, as % of response to an about EC80 ACh concentration, read-out: Emax (% ACh maximum at 30 μM); for EC50: positive allosteric modulation of EC20 acetylcholine response, >10,000 estimated where no plateau in the curve
From the text: Chinese hamster ovary (CHO-K1) cells stably expressing rat (r)M1 were purchased from the American Type Culture Collection and cultured according to their indicated protocol. CHO cells stably expressing human (h)M2, hM3, and hM5 were described previously (Levey, A. I., et al., J. Neurosci. 1991, 11, 3218-3226.); hM1 and hM4 cDNAs were purchased from Missouri S&T cDNA Resource; rM4 cDNA was provided by T. I. Bonner (National Institutes of Health, Bethesda, Md.). rM2 and rM3 were cloned from a rat brain cDNA library and sequence verified. hM1, rM2, rM3, hM4, and rM4 cDNAs were used to stably transfect CHO-K1 cells purchased from the American Type Culture Collection using Lipofectamine-2000. To make stable rM2, hM2, hM4, and rM4 cell lines for use in calcium mobilization assays, these cells also were stably transfected with a chimeric G-protein (Gqi5) (provided by B. R. Conklin, University of California, San Francisco) using Lipofectamine 2000. rM1, hM1, rM3, hM3, rM5, and hM5 cells were grown in Ham's F-12 medium containing 10% heat-inactivated fetal bovine serum (FBS), 20 mM HEPES, and 50 μg/mL G418 sulfate. rM2-Gqi5, hM2Gqi5, and hM4Gqi5 cells were grown in the same medium also containing 500 μg/mL Hygromycin B. Stable rM4Gqi5 cells were grown in DMEM containing 10% heat-inactivated FBS, 20 mM HEPES, 400 μg/mL G418 sulfate, and 500 μg/mL Hygromycin B.
For high throughput measurement of agonist-evoked increases in intracellular calcium, CHO-K1 cells stably expressing muscarinic receptors were plated in growth medium lacking G418 and hygromycin at 15,000 cells/20 μL/well in Greiner 384-well black-walled, tissue culture (TC)-treated, clear-bottom plates (VWR). Cells were incubated overnight at 37° C. and 5% CO2. The next day, cells were washed using an ELX 405 (BioTek) with four washes (80 μL) of assay buffer then […], 20 μL of Fluo-4/acetoxymethyl ester (Invitrogen, Carlsbad, Calif.) prepared as a 2.3 mM stock in DMSO and mixed in a 1:1 ratio with 10% (w/v) Pluronic F-127 and diluted in assay buffer was added to the wells and the cell plates were incubated for […] at 37° C. and 5% CO2. Dye was removed by washing with the ELX 405 (four 80 μL washes of assay buffer) then aspirated to 20 μL. Compound master plates were formatted in an 11 point CRC format (1:3 dilutions) in 100% DMSO with a starting concentration of 10 mM using the BRAVO liquid handler (Agilent). Test compound CRCs were then transferred to daughter plates ([…]) using the Echo acoustic plate reformatter (Labcyte, Sunnyvale, Calif.) and then diluted into assay buffer (40 μL) to a 2× stock using a Thermo Fisher Combi (Thermo Fisher Scientific, Waltham, Mass.).
Calcium flux was measured using the Functional Drug Screening System (FDSS) 6000 (Hamamatsu Corporation, Tokyo, Japan) as an increase in the fluorescent static ratio. Compounds were applied to cells (20 μL, 2×) using the automated system of the FDSS 6000 at 4 s into the 300 s protocol and the data were collected at 1 Hz. At 144 s into the 300 s protocol, 10 μL of an EC20 concentration of the muscarinic receptor agonist acetylcholine was added (5×), followed by the addition of 12 μL an EC80 concentration of acetylcholine at the 230 s time point (5×). Agonist activity was analyzed as a concentration-dependent increase in calcium mobilization upon compound addition. Positive allosteric modulator activity was analyzed as a concentration-dependent increase in the EC20 acetylcholine response. Antagonist activity was analyzed as a concentration-dependent decrease in the EC80 acetylcholine response. Concentration-response curves were generated using a four-parameter logistical equation in XLFit curve fitting software (IDBS, Bridgewater, N.J.) for Excel (Microsoft, Redmond, Wash.) or Prism (GraphPad Software, Inc., San Diego, Calif.).
The calcium mobilization assay was also used to determine “efficacy”. […]

Compound | Emax | EC50
Cn1cc(-c2ccc(CNc3ccccc3S(C)(=O)=O)c(F)c2)cn1 [Compound B15] | 34% | > 10 µM
Cn1cc(-c2ccc(Cn3cc(S(=O)(=O)CCNC(=O)c4cccc(F)c4)c4c(F)cc(F)cc43)c(F)c2)cn1 [Compound B30] | 35% | > 10 µM
Cn1cc(-c2ccc(Cn3cc(S(=O)(=O)CCNC(=O)c4cccnn4)c4c(F)cc(F)cc43)c(F)c2)cn1 [Compound B10] | 36% | 5.6 µM
Cc1cc(NC(=O)c2cn(Cc3ccc(-c4cnn(C)c4)cc3F)c3ccccc23)no1 [Compound B8] | 43% | 5 µM
COc1cc2ccccc2n(Cc2ccc(-c3cnn(C)c3)cc2F)c1=O [Compound B1, 1-(2-fluoro-4-(1-methyl-1H-pyrazol-4-yl)benzyl)-3-methoxyquinolin-2(1H)-one] | 31% | 2.4 µM
Cn1cc(-c2ccc(Cn3cc(S(C)(=O)=O)c4ccccc43)c(F)c2)cn1 [Compound B7] | 64% | 3.9 µM
Cn1cc(-c2ccc(Cn3c(=O)ccc4ccccc43)c(F)c2)cn1 [Compound B6] | 45% | 3.6 µM
Cn1cc(-c2ccc(Cn3cc(S(=O)(=O)CCNC(=O)c4cnccn4)c4c(F)cc(F)cc43)c(F)c2)cn1 [Compound B4, N-(2-((4,6-difluoro-1-(2-fluoro-4-(1-methyl-1H-pyrazol-4-yl)benzyl)-1H-indol-3-yl)sulfonyl)ethyl)pyrazine-2-carboxamide] | 52% | 3.4 µM
Cn1cc(-c2ccc(CNc3ccccc3[S+](C)[O-])c(F)c2)cn1 (stereo not shown) [Compound B17] | 39% | > 10 µM
Cn1cc(-c2ccc(Cn3cc(C(=O)Nc4cccnc4)c4ccccc43)c(F)c2)cn1 [Compound B9, 1-(2-fluoro-4-(1-methyl-1H-pyrazol-4-yl)benzyl)-N-(pyridin-3-yl)-1H-indole-3-carboxamide] | 50% | 5.4 µM
Cn1cc(-c2ccc(Cn3c(=O)sc4ccccc43)c(F)c2)cn1 [Compound B14] | 45% | > 10 µM
Cn1cc(-c2ccc(Cn3cc(C(=O)O)c4ccccc43)c(F)c2)cn1 [Compound B27] | 48% | > 10 µM
Cn1cc(-c2ccc(Cn3cc(S(=O)(=O)CCNC(=O)c4ccncc4)c4c(F)cc(F)cc43)c(F)c2)cn1 [Compound B31] | 30% | > 10 µM
Cn1cc(-c2ccc(Cn3cc(C(=O)NCCc4ccccn4)c4ccccc43)c(F)c2)cn1 [Compound B28] | 35% | > 10 µM
Cn1cc(-c2ccc(Cn3cc(S(=O)(=O)CCNC(=O)c4ccnnc4)c4c(F)cc(F)cc43)c(F)c2)cn1 [Compound B11] | 45% | 7.6 µM
Cn1cc(-c2ccc(Cn3cc(S(=O)(=O)CCNC(=O)c4ccno4)c4c(F)cc(F)cc43)c(F)c2)cn1 [Compound B2] | 27% | 2.8 µM
Cn1cc(-c2ccc(Cn3nc4ccccn4c3=O)c(F)c2)cn1 [Compound B13] | 29% | 9.4 µM
Cn1cc(-c2ccc(Cn3cc(S(=O)(=O)CCNC(=O)c4ccccn4)c4c(F)cc(F)cc43)c(F)c2)cn1 [Compound B29] | 34% | > 10 µM
Cn1cc(-c2ccc(Cn3cc(S(=O)(=O)CCNC(=O)c4cocn4)c4c(F)cc(F)cc43)c(F)c2)cn1 [Compound B32] | 57% | > 10 µM
Cn1cc(-c2ccc(Cn3cc(S(=O)(=O)CCNC(=O)c4ccn[nH]4)c4c(F)cc(F)cc43)c(F)c2)cn1 [Compound B12] | 31% | 8.1 µM
Cn1cc(-c2ccc(CN3Cc4ccccc4C3)c(F)c2)cn1 [Compound B5] | 38% | 3.5 µM

Other lines, results leading:

Emax | EC50 | Compound
46% | > 10 µM | Cn1cc(-c2ccc(CN3C(=O)NCc4ccccc43)c(F)c2)cn1 [Compound B19]
44% | > 10 µM | Cn1cc(-c2ccc(CN3C(=O)CCc4ccccc43)c(F)c2)cn1 [Compound B22]
32% | > 10 µM | Cn1cc(-c2ccc(CN3C(=O)CSc4ccccc43)c(F)c2)cn1 [Compound B16, 4-(2-fluoro-4-(1-methyl-1H-pyrazol-4-yl)benzyl)-2H-benzo[b][1,4]thiazin-3(4H)-one]
31% | > 10 µM | Cn1cc(-c2ccc(CN3CC[S+]([O-])c4ccccc43)c(F)c2)cn1 (stereo not shown) [Compound B18]
44% | > 10 µM | Cn1cc(-c2ccc(CN3C(=O)COc4ccccc43)c(F)c2)cn1 [Compound B23]
41% | > 10 µM | Cn1cc(-c2ccc(CN3C(=O)C[S+]([O-])c4ccccc43)c(F)c2)cn1 (stereo not shown) [Compound B20, 4-(2-fluoro-4-(1-methyl-1H-pyrazol-4-yl)benzyl)-2H-benzo[b][1,4]thiazin-3(4H)-one 1-oxide]
52% | > 10 µM | Cn1cc(-c2ccc(CN3CC(C(=O)O)c4ccccc43)c(F)c2)cn1 (stereo not shown) [Compound B25]
61% | > 10 µM | Cn1cc(-c2ccc(CN3Cc4ccccc4C3C(=O)O)c(F)c2)cn1 (stereo not shown) [Compound B26]
36% | > 10 µM | Cn1cc(-c2ccc(CN3C(=O)CS(=O)(=O)c4ccccc43)c(F)c2)cn1 [Compound B21, 4-(2-fluoro-4-(1-methyl-1H-pyrazol-4-yl)benzyl)-2H-benzo[b][1,4]thiazin-3(4H)-one 1,1-dioxide]
61% | 3.1 µM | Cn1cc(-c2ccc(CN3C(=O)OCc4ccccc43)c(F)c2)cn1 [Compound B3, 1-(2-fluoro-4-(1-methyl-1H-pyrazol-4-yl)benzyl)-1H-benzo[d][1,3]oxazin-2(4H)-one]
39% | > 10 µM | Cn1cc(-c2ccc(CN3c4ccccc4CS3(=O)=O)c(F)c2)cn1 [Compound B24, 1-(2-fluoro-4-(1-methyl-1H-pyrazol-4-yl)benzyl)-1,3-dihydrobenzo[c]isothiazole 2,2-dioxide]

Reference: patent US9012445B2, “Substituted 4-(1H-pyrazol-4-yl)benzyl analogues as positive allosteric modulators of mAChR M1 receptors” (Vanderbilt University, priority 2012, dated 2015)
